Converted amounts (≈) assume the structure as drawn. Like-named read-outs stand apart in the source and are kept apart here.
What was measured:
Plasmodium berghei [1] = assay: Plasmodium berghei mouse malaria model (Peters test, cures at 30 days); assay type: in vivo; details: po, 720 h; for responders at 4 mg/kg: Table 6, 4 mg/kg
Excerpt: The suppressive 4-day “Peters test” ^27 involving P. berghei infected mice provides a convenient and cost effective means to assess the overall in vivo performance of pre-clinical antimalarials. […] Mice were followed for 30 days and judged to have been cured of the infection based on the lack of detectable parasitemia at the end of the study.
Female Swiss Webster Mice (average of 20 g body weight) were infected intraperitoneally with 10^6 Plasmodium berghei-infected erythrocytes collected from a previously infected mouse. […] There were five mice in each test arm. Infections were monitored by daily microscopic evaluation of Giemsa-stained blood smears starting on day seven. Parasitemia were determined by counting the number of infected and uninfected erythrocytes. Body weight was measured over the course of the treatment. […] Animal survival and morbidity were closely monitored for up to 30 days post-infection when the experiment was terminated. In some cases survival is expressed as a PD100 or PD50, the dose that produces respectively 100% or 50% cures in treated animals at 30 days post infection.

[2] = system: clinical K13-mutant strain; details: pulsed exposure; cited from earlier work
[3] = system: K13 revertant strain bearing the wild type K13 allele; details: pulsed exposure; cited from earlier work
[4] = Mouse liver microsome assay (half-life, intrinsic clearance); details: for T1/2: half-life when incubated with mouse liver microsomes
Excerpt: A second hypothesis regarding trans-R^A substitution (R^A in Scheme 1) was that the resulting de-symmetrized molecular topology would impact the vivo PK/PD properties of these analogs. […] To explore possible metabolic differences, we evaluated selected analogs with mouse liver microsomes and derived intrinsic clearance (CLint) values (Table 1).

[5] = Kinetic solubility in PBS; assay type: physicochemical; details: kinetic solubility in PBS (pH = 7.4), final DMSO 5%, average of three determinations
Plasmodium berghei [6] = assay: Plasmodium berghei mouse malaria model (Peters test, cures at 30 days); assay type: in vivo; details: po, 720 h, oral gavage, read-out: Mice Cured (%)
[7] = system: Plasmodium falciparum: strain W2; assay: Plasmodium falciparum growth inhibition assay (EC50 determinations); assay type: cell-based; details: W2 strain of P. falciparum
Method: The growth inhibition assay for P. falciparum was conducted as described previously^29 with minor modifications. […] Following 48 hours of incubation, the cells were fixed by adding 0.1 ml of 2% formaldehyde in phosphate buffered saline, pH=7.4 (PBS). […] Parasitemias were determined from dot plots (forward scatter vs. fluorescence) using [sequence] software (Becton Dickinson). EC50 values for growth inhibition were determined from plots of percentage control parasitemia over inhibitor concentration using GraphPad Prism software.

PC3 tumor = assay: Biodistribution of 18F probes in PC3 tumor-bearing mice; assay type: in vivo, mouse
Method: FIG. 6. B9[^18F] biodistribution in PC3-bearing mice. An intravenous injection of 300 μCi was given at the tail vein of each mouse. At 30, 60 and 90 minutes post-injection, mice were sacrificed and their organs collected. […] FIG. 7. B9[^18F] biodistribution in PC3-bearing mice. An intravenous injection of 300 μCi was given at the tail vein of mice containing either a subcutaneous PC3 tumor or a renal capsule PC3 tumor. At 60 minutes post-injection, mice were sacrificed and their organs collected. […] FIG. 8. B20[^18F] biodistribution in PC3 tumor-bearing nude mice: An intravenous injection of 300 μCi was given at the tail vein of each mouse. At 60 and 90 minutes post-injection, mice were sacrificed and their organs collected. The radioactivity in the tumor appears to be stable at about 0.3% id/gram.

[8] = clinical setting; cited from earlier work
[9] = Table 4, 4 mg/kg/day, once a day for four days, oral gavage, read-out: Mice Cured (%)
[10] = Table 4, 6 mg/kg/day, once a day for four days, oral gavage, read-out: Mice Cured (%)

Row | SMILES | T1/2 [4] | CLint ([4]; mouse, microsomes) | T1/2 (min) No NADPH ([4]; mouse, microsomes) | responders at 4 mg/kg/day (Plasmodium berghei [1]; [9]) | responders at 6 mg/kg/day (Plasmodium berghei [1]; [10]) | also measured
1 | c1cc([C@H]2CC[C@]3(CC2)OO[C@]2(O3)C3CC4CC(C3)CC2C4)ccc1OCCN1CCOCC1 [3Z (artefenomel)] | – | – | – | – | – | responders at 40 mg/kg (Plasmodium berghei [1]; read-out: Mice Cured (%), Table 7, 40 mg/kg, 1 dose, oral gavage): 100%; responders at 80 mg/kg (Plasmodium berghei [1]; read-out: Mice Cured (%), Table 7, 80 mg/kg, 1 dose, oral gavage): 100%
2 | c1cc([C@H]2CC[C@]3(CC2)OO[C@]2(O3)C3CC4CC(C3)CC2C4)ccc1OCCN1CCOCC1 [3Z, artefenomel] | – | – | – | – | – | time to reduce early ring viability by 50% (t50) [2]: ~5 h; time to reduce early ring viability by 50% (t50) [3]: ~2 h
3 | CC(C)(N)CNC(=O)C[C@@H]1CCC[C@]2(C1)OOC1(O2)C2CC3CC(C2)CC1C3 (stereo partly drawn) [12a, N-(2-Amino-2-methylpropyl)-2-((R,R)-dispiro[adamantane-2,3′-[1,2,4]trioxolane-5′,1″-cyclohexan]-3″-yl)acetamide] | 2.82 h | 4.1 μL/min/mg of protein | stable | 60% | 100% | Solubility [5]: 429 µM (≈ 168 µg/mL); responders at 9.5 mg/kg/day (Plasmodium berghei [1]; Table 2, free base, 9.5 mg/kg/day, once a day for four days, oral gavage, no parasitemia at 30 days, read-out: Mice Cured (%)): 100%; responders at 13.6 mg/kg/day (Plasmodium berghei [1]; Table 2, tosylate salt, 13.6 mg/kg/day, once a day for four days, oral gavage, no parasitemia at 30 days, read-out: Mice Cured (%)): 100%; responders at 1 mg/kg/day (Plasmodium berghei [1]; Table 3, free base, 1 mg/kg/day, four daily doses, oral gavage, read-out: Mice Cured (%)): 0%; responders at 4 mg/kg/day (Plasmodium berghei [1]; Table 3, free base, 4 mg/kg/day, four daily doses, oral gavage, read-out: Mice Cured (%)): 0%; responders at 6 mg/kg/day (Plasmodium berghei [1]; Table 3, free base, 6 mg/kg/day, four daily doses, oral gavage, read-out: Mice Cured (%)): 60%; responders at 10 mg/kg/day (Plasmodium berghei [1]; Table 3, free base, 10 mg/kg/day, four daily doses, oral gavage, read-out: Mice Cured (%)): 100%
4 | NC(=O)CNC(=O)C[C@@H]1CCC[C@]2(C1)OOC1(O2)C2CC3CC(C2)CC1C3 (stereo partly drawn) [12b, N-(2-Amino-2-oxoethyl)-2-((R,R)-dispiro[adamantane-2,3′-[1,2,4]trioxolane-5′,1″-cyclohexan]-3″-yl)acetamide] | 0.622 h | 18.6 μL/min/mg of protein | stable | – | – | –
5 | NCCNC(=O)C[C@@H]1CCC[C@]2(C1)OOC1(O2)C2CC3CC(C2)CC1C3 (stereo partly drawn) [12c, N-(2-Aminoethyl)-2-((R,R)-dispiro[adamantane-2,3′-[1,2,4]trioxolane-5′,1″-cyclohexan]-3″-yl)acetamide] | 1.41 h | 8.2 μL/min/mg of protein | – | 100% | 100% | T1/2 (min) No NADPH ([4]; mouse liver microsomes, no NADPH): 136 min; responders at 0.5 mg/kg/day (Plasmodium berghei [1]; Table 5, 0.5 mg/kg/day, once a day for four days, oral gavage, read-out: Mice Cured (%)): 0%; responders at 1 mg/kg/day (Plasmodium berghei [1]; Table 5, 1 mg/kg/day, once a day for four days, oral gavage, read-out: Mice Cured (%)): 0%; responders at 2 mg/kg/day (Plasmodium berghei [1]; Table 5, 2 mg/kg/day, once a day for four days, oral gavage, read-out: Mice Cured (%)): 0%; responders at 4 mg/kg/day (Plasmodium berghei [1]; Table 5, 4 mg/kg/day, once a day for four days, oral gavage, read-out: Mice Cured (%)): 100%; responders at 4 mg/kg (Plasmodium berghei [1]; 1 dose, oral gavage, read-out: Mice Cured (%)): 0%; responders at 4 mg/kg (Plasmodium berghei [1]; 2 daily doses, oral gavage, read-out: Mice Cured (%)): 0%; responders at 4 mg/kg (Plasmodium berghei [1]; 4 daily doses, oral gavage, read-out: Mice Cured (%)): 100%; responders at 40 mg/kg (Plasmodium berghei [1]; Table 7, 40 mg/kg, 2 doses, oral gavage, read-out: Mice Cured (%)): 100%; responders at 4 mg/kg (Plasmodium berghei [6]; Table 6, 4 mg/kg, 3 daily doses): 20%; responders at 40 mg/kg (Plasmodium berghei [6]; Table 7, 40 mg/kg, 1 dose): 0%; responders at 80 mg/kg (Plasmodium berghei [6]; Table 7, 80 mg/kg, 1 dose): 20%
6 | CC(C)(CN)CNC(=O)C[C@@H]1CCC[C@]2(C1)OOC1(O2)C2CC3CC(C2)CC1C3 (stereo partly drawn) [12d, N-(3-Amino-2,2-dimethylpropyl)-2-((R,R)-dispiro[adamantane-2,3′-[1,2,4]trioxolane-5′,1″-cyclohexan]-3″-yl)acetamide] | 1.07 h | 10.8 μL/min/mg of protein | stable | 0% | 0% | –
7 | O=C(C[C@@H]1CCC[C@]2(C1)OOC1(O2)C2CC3CC(C2)CC1C3)N1CCOCC1 (stereo partly drawn) [12f, 2-((R,R)-Dispiro[adamantane-2,3′-[1,2,4]trioxolane-5′,1″-cyclohexan]-3″-yl)-1-morpholinoethan-1-one] | – | – | – | 0% | 0% | potency of 12f relative to regioisomer 2f [7]: three-fold more potent than 2f
8 | O=C(C[C@@H]1CCC[C@]2(C1)OOC1(O2)C2CC3CC(C2)CC1C3)N1CCNCC1 (stereo partly drawn) [12g, 2-((R,R)-Dispiro[adamantane-2,3′-[1,2,4]trioxolane-5′,1″-cyclohexan]-3″-yl)-1-(piperazin-1-yl)ethan-1-one] | 0.425 h | 27.2 μL/min/mg of protein | stable | 0% | 20% | –
9 | CN1CCN(C(=O)C[C@@H]2CCC[C@]3(C2)OOC2(O3)C3CC4CC(C3)CC2C4)CC1 (stereo partly drawn) [12h, 2-((R,R)-Dispiro[adamantane-2,3′-[1,2,4]trioxolane-5′,1″-cyclohexan]-3″-yl)-1-(4-methylpiperazin-1-yl)ethan-1-one] | – | – | – | 0% | 0% | –
10 | NC1CCN(C(=O)C[C@@H]2CCC[C@]3(C2)OOC2(O3)C3CC4CC(C3)CC2C4)CC1 (stereo partly drawn) [12i, 1-(4-Aminopiperidin-1-yl)-2-((R,R)-dispiro[adamantane-2,3′-[1,2,4]trioxolane-5′,1″-cyclohexan]-3″-yl)ethan-1-one] | 1.41 h | 8.2 μL/min/mg of protein | stable | – | – | –
11 | N[C@H]1CC[C@H](NC(=O)C[C@@H]2CCC[C@]3(C2)OOC2(O3)C3CC4CC(C3)CC2C4)CC1 (stereo partly drawn) [12j, N-((trans)-4-Aminocyclohexyl)-2-((R,R)-dispiro[adamantane-2,3′-[1,2,4]trioxolane-5′,1″-cyclohexan]-3″-yl)acetamide] | – | – | – | 60% | 100% | –
12 | O=C(NCCCNC(=O)C12CC3CC(C1)[C@]1(OO[C@]4(CC[C@@H](c5ccc(OCCN6CCOCC6)cc5)CC4)O1)C(C3)C2)c1ccc(F)cc1 [B9[^18F], N-(3-(4-[^18F]fluorobenzamido)propyl)-4″-(4-(2-morpholinoethoxy)phenyl)dispiro[adamantane-2,3′-[1,2,4]trioxolane-5′,1″-cyclohexane]-5-carboxamide] | – | – | – | – | – | biodistribution, subcutaneous vs renal capsule PC3 tumor (PC3 tumor; 300 μCi i.v. tail vein, 60 minutes post-injection): no major differences noticed between the two xenograft models; radioactivity in the tumor (PC3 tumor; PC3-bearing mice, 300 μCi i.v. tail vein, 30, 60 and 90 minutes post-injection): up to 4 % id/gram
13 | CC(C)(N)CNC(=O)C[C@H]1CC[C@]2(CC1)OO[C@]1(O2)C2CC3CC1CC(C(=O)NCCCNC(=O)c1ccc(F)cc1)(C3)C2 [B20[^18F], (1R,2r,3S,4″S,5S,5′s,7S)-4″-(2-((2-amino-2-methylpropyl)amino)-2-oxoethyl)-N-(3-(4-^18F-fluorobenzamido)propyl)dispiro[adamantane-2,3′-[1,2,4]trioxolane-5′,1′″-cyclohexane]-5-carboxamide] | – | – | – | – | – | radioactivity in the tumor (PC3 tumor; PC3 tumor-bearing nude mice, 300 μCi i.v. tail vein, 60 and 90 minutes post-injection): about 0.3 % id/gram
14 | C[C@H]1[C@@H](O)O[C@@H]2O[C@@]3(C)CC[C@H]4[C@H](C)CC[C@@H]1[C@@]24OO3 [DHA, dihydroartemisinin] | – | – | – | – | – | half-life [8]: ~1 h
15 | Cc1ncc2n1-c1ccc(Cl)cc1C(c1ccccc1F)=NC2 [midazolam] | 0.0275 h | – | – | – | – | CLint ([4]; mouse liver microsomes, CLint = Ln(2)*1000/T1/2/protein concentration): 420 μL/min/mg of protein
16 | C[C@]12CC[C@H]3[C@@H](CCC4=CC(=O)CC[C@@]43C)[C@@H]1CC[C@@H]2O [testosterone] | – | – | – | – | – | Solubility [5]: 315 µM (≈ 90.9 µg/mL)

— patent US12139470B2, “Trioxolane agents” (The Regents of the University of California, priority 2017, dated 2024)
